These results are taken from patent US7273856B2, “Linear basic compounds having NK-2 antagonist activity and formulations thereof” (Menarini Ricerche S.P.A., priority 2001, dated 2007).

Several values for one entry are separate records, joined by “and”; a condition that tells them apart may be missing. Equal entries are not always repeated. Structures can show the parent of a compound that is named as a salt.

The target of the test is T1, human NK-2 receptor (Homo sapiens, UniProt P21452).
T1 construct: expressed in transfected cells; host or cells: CHO (Chinese hamster ovary) cells, membranes
T1 sequence (P21452 1-398): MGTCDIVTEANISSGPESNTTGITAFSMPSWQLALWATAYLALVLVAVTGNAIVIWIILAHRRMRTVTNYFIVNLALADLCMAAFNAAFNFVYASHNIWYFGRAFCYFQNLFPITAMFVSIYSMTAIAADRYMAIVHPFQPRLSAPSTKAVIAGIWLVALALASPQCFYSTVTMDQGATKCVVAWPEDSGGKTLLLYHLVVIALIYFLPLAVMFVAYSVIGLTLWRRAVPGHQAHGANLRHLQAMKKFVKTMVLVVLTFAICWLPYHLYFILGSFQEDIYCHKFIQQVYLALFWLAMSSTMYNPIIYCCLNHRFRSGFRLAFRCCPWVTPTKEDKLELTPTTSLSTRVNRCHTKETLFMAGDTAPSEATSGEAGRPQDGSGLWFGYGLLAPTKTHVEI
Nature of the test: binding test, affinity for the human NK-2 receptor, competition with [125I]NKA on transfected CHO cell membranes. Conditions: CHO cell membranes transfected with NK-2 receptor of human ileum; [125I]NKA 100 pM; 30 min, 20° C. Here is the method:
The evaluation of the antagonist activity on NK-2 receptors has been assessed by binding and functional tests according to that already described in literature in relation to NK-2 antagonists.
The test substances have been tested within a concentration range from 0.01 nM to 10 nM. At the end of the incubation time (30 min, 20° C.) the samples have been filtered and radioactivity has been determined using a gamma-counter.
The term Ki denotes the dissociation constant of the complex between target and ligand, obtained from inhibition or displacement. `CC1CN(CCCNC(=O)[C@@H](Cc2ccccc2)NC(=O)C2(NC(=O)c3cc4ccccc4s3)CCCCC2)CC(C)O1` (stereo partly drawn) [Example 48, Benzo[b]thiophene-2-carboxylic acid (1-{1-[3-(2,6-dimethyl-morpholin-4-yl)-propylcarbamoyl]-2-(R)-phenyl-ethylcarbamoyl}-cyclohexyl)-amide] had a Ki of 0.398 nM.
Still for that read-out and setting: under `O=C(NC1(C(=O)N[C@H](Cc2ccccc2)C(=O)NCCCN2CCOCC2)CCCC1)c1cc2cc(Br)ccc2o1` [Example 104, 5-Bromo-benzofuran-2-carboxylic acid {1-[1R-(3-morpholin-4-yl-propylcarbamoyl)2-phenyl-ethylcarbamoyl]-cyclopentyl}-amide] stands 0.501 nM and 0.316 nM.
Regarding `N[C@@H]1CCCC[C@H]1NC(=O)[C@@H]1C[C@@H](NC(=O)[C@@H](Cc2ccccc2)NC(=O)C2(NC(=O)c3cc4ccccc4s3)CCCCC2)CN1` [Example 27, N^γ{N^α[N^α(benzo[b]thiophen-2-ylcarbonyl)-1-aminocyclohexane-1-carboxy]-D-phenylalanil}-(L-(4R)amino-proline-N-(1R,2R)-aminocyclohexyl) amide], the affinity corresponds to a Ki of 0.0631 nM.
Same read-out and setting: under `NC1(C(=O)N2CCC(CNC(=O)[C@@H](Cc3ccccc3)NC(=O)C3(NC(=O)c4cc5ccccc5s4)CCCC3)CC2)CCCCC1` [Example 96, Benzo[b]thiophene-2-carboxylic acid [1-(1(R)-{[1-(1-aminocyclohexanecarbonyl)-piperidin-4-ylmethyl]-carbamoyl}-2-phenyl-ethylcarbamoyl)-cyclopentyl]-amide TFA salt] stands 0.1 nM.
As a reminder, the pKi is the negative decadic logarithm of the Ki, by convention in mol/L. In turn, “Benzo[b]thiophene-2-carboxylic acid [1-(2-phenyl-1(R)-{[1-(tetrahydro-pyran-4-yl)-piperidin-4-ylmethyl]-carbamoyl}-ethylcarbamoyl)-cyclopentyl]-amide [Example 73]” displayed a pKi of 9.3.
Turning to `O=C(NC1(C(=O)N[C@H](Cc2ccccc2)C(=O)NCC2CCN(CC3CCOCC3)CC2)CCCC1)c1ccc2ccccc2c1` [Example 151, Naphthalene-2-carboxylic acid [1-(2-phenyl-1R-{[1-(tetrahydro-pyran-4-ylmethyl)-piperidin-4-ylmethyl]-carbamoyl}-ethylcarbamoyl)-cyclopentyl]-amide], the affinity corresponds to a Ki of 1.26 nM. In other words, the single-digit nanomolar range.
Same read-out and setting: under `O=C(C=Cc1ccc(Br)c(Br)c1)NC1(C(=O)N[C@H](Cc2ccccc2)C(=O)NCCCN2CCOCC2)CCCC1` [Example 50, 1-[3-(3,4-dibromophenyl)-acryloylamino]-cyclopentanecarboxylic acid [1-(3-morpholin-4-yl-propylcarbamoyl)-2-(R)-phenyl-ethyl]-amide] stands 0.398 nM; under `O=C(NC1(C(=O)N[C@H](Cc2ccccc2)C(=O)NCC2CCN(CC3CCOCC3)CC2)CCCC1)c1cc2ccc(I)cc2s1` [Example 129, 6-Iodo-benzo[b]thiophene-2-carboxylic acid [1-(2-phenyl-1R-{[1-(tetrahydro-pyran-4-ylmethyl)-piperidin-4-ylmethyl]-carbamoyl}-ethylcarbamoyl)-cyclopentyl]-amide], 0.0501 nM.
On the same count and under the same terms, in the case of `NC1CCCCC1NC(=O)C1CCC(NC(=O)C(Cc2ccccc2)NC(=O)C2(NC(=O)c3cc4ccccc4s3)CCCCC2)C1` (single isomer, unassigned) [Example 40] it was 1.26 nM.
